In brackets after ≈: the same amount, converted by molar mass. Read-outs that look alike come from different tables or passages of the source.
Key:
AcmJRL [1] = molecular target: T1, AcmJRL (Ananas comosus, UniProt Q53J09); assay: isothermal titration calorimetry; type: binding; conditions: for Ka (M^-1): Tris-HCl 50 mM, 150 mM NaCl, pH 7.4, 25 °C, fit with fixed n = 2 equivalent sites
T1 construct: native, purified from pineapple stem (D-mannose-Agarose, Superdex 75); initiator Met absent; N-terminus SGLVGLG; residues 2-145; not glycosylated; homodimer in solution, tetramer in crystal
Description: isothermal titration calorimetry on AcmJRL

AcmJRL [2] = molecular target: T2, AcmJRL (Ananas comosus, UniProt Q53J09); design: inhibition of lectin-induced rat erythrocyte hemagglutination, two-fold serial dilution, lowest saccharide concentration visibly decreasing agglutination; conditions: minimum concentration inhibiting hemagglutination of rat erythrocytes; inhibitor
T2 construct: native, purified from pineapple stem (D-mannose-Agarose, Superdex 75); initiator Met absent; N-terminus SGLVGLG; residues 2-145; not glycosylated; homodimer in solution, tetramer in crystal
T2 sequence (Q53J09 2-145): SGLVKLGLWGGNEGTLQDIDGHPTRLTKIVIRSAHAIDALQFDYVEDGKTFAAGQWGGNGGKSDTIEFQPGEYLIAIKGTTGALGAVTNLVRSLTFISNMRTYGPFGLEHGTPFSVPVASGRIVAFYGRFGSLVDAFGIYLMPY
Experimental: Hemagglutinating activity was performed in microtiter plates with V-bottom wells, using the two-fold serial dilution method, starting with a concentration of 1 mg/mL (65 µM) lectin in phosphate-buffered saline containing 150 mM NaCl. Rabbit, sheep and rat erythrocytes were washed six times with 150 mM NaCl and resuspended at a final concentration of 3% (v/v) in 150 mM NaCl. Twenty-five µL of lectin solution were mixed with 25 µL of 3% erythrocytes, serially diluted and incubated at room temperature and 37 °C for 1 h. Hemagglutination activity was also assayed in the presence of 50 mM of the divalent ions Mg^2+, Mn^2+ Zn^2+ and Ca^2+. In this case, Tris-HCl 50 mM buffer at pH 7.2 containing 150 mM NaCl was used to avoid precipitation of phosphate compounds. The hemagglutination activity was given as a titer (the reciprocal of the highest two-fold dilution) or expressed as the minimum protein concentration (μg/mL), which produced visible hemagglutination and denoted as Hemagglutinating Unit (HU). Specific activity was defined as the HU per milligram of protein. The carbohydrate-binding specificity was determined by the inhibition of hemagglutination of rat erythrocytes, that were only the hemagglutinated ones, with starting concentrations of 100 mM for D-mannose, methyl-α-D-mannopyranoside and methyl-α-D-glucopyranoside, 50 mM for D-glucose and N-acetyl-D-glucosamine, 15 mM for Manα1,3Man and Manα1,3(Manα1,6)Man and 10 mM for Manα1,3Manα1,6(Manα1,6)Manα1,3. The different saccharides were serially diluted from the starting concentrations. After addition of 25 µL of A. comosus lectin (187.5 µg/mL) to all microplate wells, 25 µL of each saccharide were mixed separately in the first microtiter plate well followed by two-fold serial dilution and pre-incubated at room temperature for 1 h. Then 25 µL of 3% […] erythrocyte suspension were added to each well and the hemagglutination activity was evaluated after a further 1 h incubation period at room temperature and 37 °C. […] These are, e.g., the lectins from Phlebodium aureum rhizomes and Centrolobium microchaete seeds and heltuba[19],[47],[52].

AcmJRL [3] = molecular target: T1, AcmJRL; assay: inhibition of rat erythrocyte hemagglutination; type: cell-based; conditions: AcmJRL 62.5 µg/mL; two-fold serial dilution of sugar
[4] = molecular target: the molecule itself; assay: SEC; FPLC gel filtration on Superdex 75 of affinity-purified AcmJRL; 0.15 mM protein; estimated native mass ~30 kDa
[5] = molecular target: the molecule itself; assay: crystal structure; hanging drop vapor diffusion at 20 °C, protein at 17 mg/mL (1.1 mM); apo form (1.8 Å) and crystals soaked with D-mannose (2.75 Å) or methyl-α-D-mannopyranoside (1.9 Å)

`OC[C@H]1OC(O)[C@H](O)[C@@H](O)[C@@H]1O` (stereo partly drawn) [D-Glucose] was tested, and the “Ka (M^-1)” value (AcmJRL [1]) was 83 ± 3 and the “MIC” value (AcmJRL [2]) was 3120 µM (≈ 562 µg/mL).

With `OC[C@H]1OC(O)[C@@H](O)[C@@H](O)[C@@H]1O` (stereo partly drawn) [D-Mannose] the Kd (AcmJRL [1]; read-out: Ka (M^-1) (converted)) was 5.62 mM and the “MIC” value (AcmJRL [2]) was 6250 µM (≈ 1130 µg/mL).

For `CC(=O)N[C@H]1C(O)O[C@H](CO)[C@@H](O)[C@@H]1O` (stereo partly shown) [GlcNAc], the “Ka (M^-1)” value (AcmJRL [1]) was 88 ± 1 and the “MIC” value (AcmJRL [2]) was 3120 µM (≈ 690 µg/mL).

For `OC[C@H]1O[C@H](OC[C@H]2O[C@H](OC[C@H]3OC(O)[C@@H](O)[C@@H](O[C@H]4O[C@H](CO)[C@@H](O)[C@H](O)[C@@H]4O)[C@@H]3O)[C@@H](O)[C@@H](O[C@H]3O[C@H](CO)[C@@H](O)[C@H](O)[C@@H]3O)[C@@H]2O)[C@@H](O)[C@@H](O)[C@@H]1O` (stereo partly shown) [Mannopentaose], the “Ka (M^-1)” value (AcmJRL [1]) was 1694 ± 679 and the “MIC” value (AcmJRL [2]) was 320 µM (≈ 265 µg/mL).

`OC[C@H]1O[C@H](OC[C@H]2OC(O)[C@@H](O)[C@@H](O[C@H]3O[C@H](CO)[C@@H](O)[C@H](O)[C@@H]3O)[C@@H]2O)[C@@H](O)[C@@H](O)[C@@H]1O` (stereo partly shown) [Mannotriose] was tested, and the “Ka (M^-1)” value (AcmJRL [1]) was 734 ± 117 and the “MIC” value (AcmJRL [2]) was 470 µM (≈ 237 µg/mL).

For `OC[C@H]1O[C@H](O[C@H]2[C@H](O)[C@@H](CO)OC(O)[C@H]2O)[C@@H](O)[C@@H](O)[C@@H]1O` (stereo partly shown) [Manα1,3Man], the “Ka (M^-1)” value (AcmJRL [1]) was 421 ± 52 and the “MIC” value (AcmJRL [2]) was 940 µM (≈ 322 µg/mL).

For `CO[C@H]1O[C@H](CO)[C@@H](O)[C@H](O)[C@H]1O` [methyl-α-D-glucopyranoside], the MIC (AcmJRL [3]) was 1560 µM (≈ 303 µg/mL).

Molecule `CO[C@H]1O[C@H](CO)[C@@H](O)[C@H](O)[C@@H]1O` [methyl-α-D-mannopyranoside] has an MIC (AcmJRL [3]) of 1560 µM (≈ 303 µg/mL).

B1: Ananas comosus mannose jacalin-related lectin (AcmJRL) (natural protein, UniProt Q53J09 2-145, looked up)
chain: T2 sequence (Q53J09 2-145)
notes: jacalin-like lectin from Ananas comosus (pineapple) stem, SwissProt entry Q53J09_ANACO; each monomer in the crystal runs from Ser2 to Tyr145; not glycosylated; Homodimer in solution by size-exclusion chromatography (0.15 mM); tetramer in the crystal (1.1 mM); Purification methods are in the Supplementary Materials and Methods; also called A. comosus lectin; jacalin-like lectin from A. comosus
For B1, the “stoichiometry N” value [4] was 2 and the “stoichiometry N” value [5] was 4.
